Measurements from ChEMBL document CHEMBL5244241, “Pyrimidine: A promising scaffold for optimization to develop the inhibitors of ABC transporters” (Eur J Med Chem, 2020).

Key:
[1] = Oral bioavailability in BALB/c mouse at 50 mg/kg, […] measured upto 24 hrs relative to control; format: ADME, organism-based; details: in vivo
[2] = biological target: T1, ATP-dependent translocase ABCB1 (Homo sapiens, UniProt P08183); assay: Inhibition of ABCB1 (unknown origin)
[3] = test system: K562/A02; assay: Reversal of doxorubicin-induced multidrug resistance in human K562/A02 cells assessed as reversal fold of doxorubicin cytotoxicity by MTT assay; format: functional
[4] = biological target: T1, ATP-dependent translocase ABCB1; assay: Inhibition of P-gp (unknown origin) mediated ATP hydrolysis

T1 sequence (P08183 whole entry): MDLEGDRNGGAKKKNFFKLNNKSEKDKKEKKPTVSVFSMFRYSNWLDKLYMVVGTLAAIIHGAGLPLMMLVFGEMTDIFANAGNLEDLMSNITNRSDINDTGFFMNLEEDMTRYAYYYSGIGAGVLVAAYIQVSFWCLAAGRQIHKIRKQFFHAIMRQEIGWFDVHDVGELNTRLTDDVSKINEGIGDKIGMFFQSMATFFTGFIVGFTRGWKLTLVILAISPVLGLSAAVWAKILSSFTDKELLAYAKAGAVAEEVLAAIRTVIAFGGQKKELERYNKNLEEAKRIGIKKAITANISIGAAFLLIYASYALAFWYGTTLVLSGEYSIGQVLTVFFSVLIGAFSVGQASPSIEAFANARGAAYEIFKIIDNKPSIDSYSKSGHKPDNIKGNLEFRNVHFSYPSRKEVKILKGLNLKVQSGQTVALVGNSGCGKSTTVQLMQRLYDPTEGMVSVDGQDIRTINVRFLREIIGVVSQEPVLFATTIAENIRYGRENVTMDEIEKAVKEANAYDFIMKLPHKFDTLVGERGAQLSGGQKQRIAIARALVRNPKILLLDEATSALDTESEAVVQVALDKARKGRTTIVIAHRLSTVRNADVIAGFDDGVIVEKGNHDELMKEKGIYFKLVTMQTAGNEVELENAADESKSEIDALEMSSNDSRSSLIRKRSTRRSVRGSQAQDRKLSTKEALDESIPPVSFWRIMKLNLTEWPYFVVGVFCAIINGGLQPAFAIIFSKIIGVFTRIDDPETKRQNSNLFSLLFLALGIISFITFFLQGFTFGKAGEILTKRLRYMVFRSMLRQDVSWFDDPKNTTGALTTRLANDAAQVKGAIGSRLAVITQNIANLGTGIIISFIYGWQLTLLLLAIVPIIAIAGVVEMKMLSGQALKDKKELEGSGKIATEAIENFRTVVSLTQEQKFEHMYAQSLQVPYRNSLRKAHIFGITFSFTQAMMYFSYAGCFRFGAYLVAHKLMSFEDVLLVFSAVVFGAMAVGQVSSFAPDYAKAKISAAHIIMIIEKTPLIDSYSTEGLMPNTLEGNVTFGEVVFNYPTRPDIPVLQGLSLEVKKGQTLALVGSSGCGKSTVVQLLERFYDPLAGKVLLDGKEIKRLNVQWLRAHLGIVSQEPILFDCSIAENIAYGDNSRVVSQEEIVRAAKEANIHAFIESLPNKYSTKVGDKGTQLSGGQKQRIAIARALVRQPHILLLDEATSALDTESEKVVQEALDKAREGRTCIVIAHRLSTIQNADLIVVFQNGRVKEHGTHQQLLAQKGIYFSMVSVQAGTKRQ

Row | Compound | Ratio [3] | other results
1 | NC(=O)c1c2n(c3c(N4CCN(CCc5ccc(F)c(F)c5)CC4)ncnc13)CCCC2 | – | bioavailability [1]: > 50%
2 | O=[N+]([O-])c1cc(Nc2nc(-c3ccccc3)nc3ccccc23)ccc1O | – | IC50 [2]: 0.08 µM
3 | CCCCC(CC(C)=O)n1cnc2c(N)ncnc21 (stereo unspecified) | 1.09 | –
4 | Nc1ncnc2c1ncn2[C@@H]1O[C@H](COC(=O)c2ccc(S(=O)(=O)F)cc2)[C@@H](O)[C@H]1O | – | IC50 [4]: 210 µM
5 | CCCCCC(CC(C)=O)n1cnc2c(N)ncnc21 (stereo unspecified) | 1.09 | –
6 | CCCCCCCCCCCCCCCCC(=O)CC(CCCCCCCC)n1cnc2c(N)ncnc21 (stereo unspecified) | 1.09 | –
